The text below walks through data of US8440830B2, “Tetrahydro-fused pyridines as histone deacetylase inhibitors” (4SC AG, priority 2007, dated 2013).

Like-named read-outs stand apart in the source and are kept apart here.

Assay [1] has as its system histone H3 hyperacetylation in HeLa cervical carcinoma cells. Put plainly: Cellular histone H3 hyperacetylation assay. The assay is classed as cell-based. The settings on record: Homo sapiens, 24 h treatment. From the text: To assess the cellular efficacy of a histone deacetylase inhibitor in vitro, an assay is set up in black clear-bottom 96-well plates and optimized for use on the Cellomics “ArrayScan II” platform for a quantitative calculation of histone acetylation. The protocol uses a polyclonal rabbit antibody, specifically binding to acetylated lysine 1-20 (including K 9 and K14) of human histone H3 on fixed cells with an Alexa Fluor 488 labeled goat anti rabbit-IgG used for counterstaining 5×10^3 HeLa cervical carcinoma cells/well (ATCC CCL-2) in 200 μl Dulbecco's modified Eagle's medium (DMEM) containing 10% fetal calf serum are seeded at day 1 in Packard view plates and incubated for 24 h under standard cell culture conditions. On day 2, 1 μl test compound (200× final concentration) is added and incubation continued for further 24 h. On day 3, the culture medium is discarded and attached cells fixed for 15 min at room temperature by addition of 100 μl fixation buffer (3.7% v:v formaldehyde in phosphate buffered saline/PBS). After discarding the fixation buffer and one wash with blocking solution (1% BSA, 0.3% Tween 20 in PBS), cells are permeabilized at room temperature by addition of 100 μl /well permeabilization buffer (30.8 mM NaCl, 0.54 mM Na2HPO4, 0.31 mM KH2PO4, 0.1% v:v Triton X-100) for 15 min at room temperature. After discarding the permeabilization buffer and washing twice with 100 μl/well blocking solution at room temperature, the 1st antibody (anti-K1-20 histone H3 antibody, Calbiochem No. 382158) in blocking solution (50 μl/well) is added. After incubation for 1 h at room temperature, the wells are washed twice at room temperature with 100 μl/well blocking solution before addition of the 2nd antibody (goat-anti-rabbit Alexa Fluor 488; MoBiTec No. A -11008) in blocking solution (50 μl well). After further incubation for 1 h at room temperature, wells are washed twice with 100 μl/well blocking solution at room temperature. Finally, 100 μl/well PBS are added and image analysis performed on the Cellomics “ArrayScan II” platform. For EC50 determination, the percentage of positive cells showing nuclear fluorescence is determined and EC50 calculation done from concentration-effect curves by means of non-linear regression. For calibration, a positive (reference HDAC inhibitors like SAHA or NVP LBH-589) and a negative control were included.

In assay [2] the test system is fully transformed malignant cancer cell lines. The assay can be described thus: Anti-proliferative activity, selection of cell lines (Alamar Blue). In kind it is cell-based. The settings on record: Homo sapiens, 72 h, mean over cell lines, read-out: Mean IC50 values as calculated for fully malignant cancer cell lines. How it is done:
(§1) The anti-proliferative activity of the histone deacetylase inhibitory compounds as described herein, is evaluated using the following cell lines: HeLa and HeLa-KB (cervical carcinoma), H460 (non small cell lung cancer), A549 (non-small cell lung cancer), MCF7 (breast carcinoma), MCF10A (normal, non tumorigenic breast epithelial), MDA-MB468 (breast carcinoma), MDA-MB435 (breast carcinoma), MDA-MB231 (breast carcinoma), SKBR-3 (breast carcinoma), SKOV-3 (ovarial carcinoma), A-2780 (ovarial carcinoma), RKO (colon carcinoma), HCT-15 (colon carcinoma), HCT-116 (colon carcinoma), PC3 (prostate carcinoma), BPH1 (benign prostate hyperplasia), AsPC1 (pancreatic carcinoma), Ca127 (tongue carcinoma), A-431 (vulva carcinoma), Hec1A (endometrial carcinoma), Saos-2 (osteosarcoma), U87MG (glioblastoma), WM266-4 (melanoma), K562 (chronic myeloid leukemia), EOL1 (acute hypereosinophilic myeloid leukemia), CCRF-CEM and CCRF-CEM VCR1000 (acute lymphoblastic leukemia sensitive and resistant towards Vincristine). For quantification of cellular proliferation/living cells the Alamar Blue (Resazurin) cell viability assay is applied (O'Brien et al. Eur J Biochem 267, 5421-5426, 2000). In this assay Resazurin is reduced to the fluorescent resorufine by cellular dehydrogenase activity, correlating with viable, proliferating cells. The examples are dissolved as 20 mM solutions in dimethylsulfoxide (DMSO) and subsequently diluted in semi-logarithmic steps. Cell lines are seeded at respective density into 96 well flat bottom plates in a volume of 200 μl per well. 24 h after seeding 1 μl each of the compound dilutions are added into each well of the 96 well plate. Each compound dilution is tested as quadruplicates. Wells containing untreated control cells are filled with 200 μl DMEM medium containing 0.5% v:v DMSO. The cells are then incubated with the compounds for 72 h at 37° C. in a humidified atmosphere containing 5% carbon dioxide. To determine the viability of the cells, 20 μl of a Resazurin solution (Sigma; 90 mg/l) are added. After 4 h incubation at 37° C. the fluorescence is measured at an extinction of λ=544 nm and an emission of λ=590 nm. For the calculation of the cell viability the emission value from untreated cells is set as 100% viability and the emission rates of treated cells are set in relation to the values of untreated cells. Viabilities are expressed as % values. The corresponding IC50 values of the compounds for cytotoxic activity are determined from the concentration-effect curves by means of non-linear regression.
The anti-proliferative activity of compounds from examples 1, 2, 3, 12 and 150 is evaluated by using a broad selection of non-malignant cell lines and fully transformed malignant cancer cell lines.

Assay [3] deals with RKO colon carcinoma cells with conditional p21^waf1 expression. The assay can be described thus: Cell cycle dependent cytotoxicity, RKO exop21 cell system. The assay is classed as cell-based. The settings on record: Homo sapiens, 72 h. How it is done:
as §1
For determination of cell-cycle dependent cytotoxicity, the RKO exop21 cell system is applied (Schmidt et al. Oncogene 19: 2423-2429, 2000). Briefly, RKO cells with/without p21^waf1 expression (2×10^4 cells/well induced, 6×10^3 cells/well not induced) are treated with the compounds for 72 h and metabolic activity quantified as described before. The expression of p21^waf1 was induced by treatment with Pronasterone A, causing a complete proliferation arrest of RKO cells in the G1 and G2 phases of the cell division cycle.

In assay [4] the test system is A549 NSCLC cells. Put plainly: Cellular cytotoxicity assay (Alamar Blue), A549. The conditions noted are these: Homo sapiens, 72 h, upper end given as ≧100, read-out: IC50 (μM), cytotoxicity towards A549 NSCLC cells. In kind it is cell-based. The method in brief:
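Resazurin-to-resorufin fluorescence (ex 544, em 590 nm, after 4 h) gave viability as % of untreated cells following 72 h compound exposure at 37 °C. Compounds were added in semi-logarithmic dilutions 24 h post-seeding, quadruplicate wells; IC50 fitted by non-linear regression of concentration-effect curves.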

The subject of assay [5] is A549 NSCLC cells. The assay can be described thus: Cell cycle analysis by flow cytometry. In kind it is cell-based, human. The conditions noted are these: A549, 24 h treatment. Here is the method: A549 NSCLC cells (ATTC CCL-185) are cultivated in DMEM with high glucose (supplemented with 10% FBS) at 5% CO2 and 37° C. in a humidified atmosphere under standard cell culture conditions. 24 h before compound treatment, cells are seeded at 5×10^4 cells/ml (=5×10^5 cells/10 cm cell culture dish) to allow logarithmic proliferation during the experiment. After 24 h, cells were treated with test compound or 0.5 vol % DMSO as a control. After 24 h and 48 h treatment, the culture medium is collected and detached, floating cells are collected by short centrifugation (5 min at 1200 rpm). Attached cells are washed once with 5 ml PBS, detached by treatment with 3 ml trypsin/EDTA solution (short incubation for 3-5 min) and—together with detached, floating cells—transferred into 15 ml Falcon tubes. The cell culture dish is washed with 10 ml DMEM to collect all remaining cells. After centrifugation for 5 min at 1200 rpm at room temperature, the supernatant is discarded and the cell pellet washed twice with 10 ml PBS. The supernatant is discarded, the cells resuspended in 4 ml ice-cold fixation solution (70 vol % ethanol, 30 vol % H2O; stored at −20° C.) and stored at −20° C. overnight. Next, 10 ml PBS (4° C.) is added to the cells, before centrifugation for 5 min at 1200 rpm (4° C.). The supernatant is discarded, the cell pellet washed once with 10 ml PBS (4° C.) and the cell pellet finally resuspended in about 1 ml staining solution (10 μg/ml RNAse A, 10 μg/ml propidiumiodide in PBS, final volume dependent on cell number). After incubation for 30 min at room temperature in the dark, cells are stored on ice and analyzed using the Becton Dickinson FACS Canto device. Analysis is done at an excitation of λ=488 nm with emission set as λ=600 nm.
Data analysis: Cells are analyzed according to size, granularity and propidiumiodide intensity. Size and granularity of cells are determined by measurement of forward scatter (FSC) and side scatter (SSC) of the λ=488 nm excitation light, respectively. To discriminate cells with 4N DNA content from cell doublets (two attached cells with 2N DNA content each), the ratio between the area under the propidiumiodide peak (PE-A) and the height of the propidiumiodide peak (PE-H) for each cell is determined. Cell doublets need more time to pass through the laser beam, which causes a broadening of the propidiumiodide peak and an increase of the ratio PE-A/PE-H. Using this analysis, cells in 4N and cell doublets appear as distinct clouds in a scatter plot and are excluded from the analysis. Thus, the area under the propidiumiodide peak at λ=600 nm (PE-A) is a measure for the DNA content of the cells. PE-A is blotted against the measured cell number in a histogram in order to determine the percentage of analyzed cells in an individual stage of the cell cycle.

The test system of another assay is HDACs 4 to 8. The conditions noted are these: read-out: IC50 HDACs 4 to 8; Kalita et al. 2005; cited from earlier work.
In the next assay the target is T1, HDAC11 (Homo sapiens, UniProt Q96DB2).
T1 sequence (Q96DB2 1-347): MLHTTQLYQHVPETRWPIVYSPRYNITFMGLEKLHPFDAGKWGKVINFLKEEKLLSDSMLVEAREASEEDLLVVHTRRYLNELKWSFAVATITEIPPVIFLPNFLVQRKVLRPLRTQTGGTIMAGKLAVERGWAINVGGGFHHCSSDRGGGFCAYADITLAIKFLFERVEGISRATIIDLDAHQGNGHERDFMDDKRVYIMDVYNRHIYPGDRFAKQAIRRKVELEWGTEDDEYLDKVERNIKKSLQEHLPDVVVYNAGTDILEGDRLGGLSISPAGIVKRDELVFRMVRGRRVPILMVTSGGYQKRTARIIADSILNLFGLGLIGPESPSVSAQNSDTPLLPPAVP
The settings on record: Kalita et al. 2005; one range for HDAC1, 2, 3 and 11; cited from earlier work.

The test system of assay [6] is acute human T-lymphoblastic leukemia cell line CCRF-CEM. The conditions noted are these: about 10.000 unique accession numbers, Peart et al. 2005; cited from earlier work.
Setting [7] is: read-out: EC50, induction of histone H3 hyperacetylation.
The mark [8] stands for this setting: read-out: −lg EC50, induction of histone H3 hyperacetylation.

As for `Cc1ccc(S(=O)(=O)N2CCc3nc(C(=O)Nc4ccccc4N)sc3C2)cc1` [Example 150, N-(2-aminophenyl)-5-[(4-methylphenyl)sulfonyl]-4,5,6,7-tetrahydro[1,3]-thiazolo[5,4-c]pyridine-2-carboxamide], the half-maximal effective concentration (EC50) lay within 150 to 15000 nM in assay [1] (setting [7]) and 251 to 15800 nM in assay [1] (setting [8]). In addition, the concentration for half-maximal inhibition (IC50) in assay [2] was 2400 to 5400 nM; in assay [3] (RKO arrested, p21^waf1 expressed, read-out: RKO arrested (p21^waf1 expressed) IC50), 1100 to 4900 nM; in assay [3] (RKO proliferating, p21^waf1 not induced, read-out: RKO proliferating IC50) it was 1100 to 4000 nM; in the assay with A549 NSCLC cells [4] it was no less than 0.2 µM.
For the molecule `COc1ccc(S(=O)(=O)N2CCc3nc(C(=O)Nc4ccccc4N)sc3C2)cc1` [Example 153, N-(2-aminophenyl)-5-[(4-methoxyphenyl)sulfonyl]-4,5,6,7-tetrahydro[1,3]thiazolo[5,4-c]pyridine-2-carboxamide], the EC50 in assay [1] (setting [7]) was in the range of 150 to 15000 nM; in assay [1] (setting [8]) it was 251 to 15800 nM. Also, the IC50 with A549 NSCLC cells [4] is no less than 0.2 µM. The “concentration inducing arrest in G1, depletion of cells in the S-phase and reduction of cells in the G2/M-phase” value with A549 NSCLC cells [5] is “around 3 μM”.
On to `Cc1ccc(OC(=O)N2CCc3nc(C(=O)Nc4ccccc4N)sc3C2)cc1` [Example 182, 4-methylphenyl 2-[(2-aminophenyl)carbamoyl]-6,7-dihydro[1,3]thiazolo[5,4-c]pyridine-5(4H)-carboxylate], for which the values for the 50% effective concentration (EC50) in assay [1] (setting [7]) and in assay [1] (setting [8]) were 150 to 15000 nM and 251 to 15800 nM, respectively. Further, in the assay with A549 NSCLC cells [4], the half-maximal inhibitory concentration (IC50) was no less than 0.2 µM. Moreover, the “concentration inducing arrest in G1, depletion of cells in the S-phase and reduction of cells in the G2/M-phase” value in the assay on A549 NSCLC cells [5] is listed as “around 3 μM”.
For `Nc1ccccc1NC(=O)c1nc2c(s1)CN(C(=O)OCc1cccnc1)CC2` [Example 189, Pyridin-3-ylmethyl 2-[(2-aminophenyl)carbamoyl]-6,7-dihydro[1,3]thiazolo[5,4-c]pyridine-5(4H)-carboxylate] the same measures were 150 to 15000 nM, 251 to 15800 nM, no less than 0.2 µM and “around 3 μM”.
Regarding `Cc1ccc(S(=O)(=O)Nc2ccc(N3CCc4nc(C(=O)Nc5ccccc5N)sc4C3)nc2)cc1` [Example 197, N-(2-aminophenyl)-5-(5-{[(4-methylphenyl)sulfonyl]amino}pyridin-2-yl)-4,5,6,7-tetrahydro[1,3]thiazolo[5,4-c]pyridine-2-carboxamide], the values for the EC50 in assay [1] (setting [7]) and in assay [1] (setting [8]) were 150 to 15000 nM and 251 to 15800 nM, respectively. Further, in the assay with A549 NSCLC cells [4], the 50% inhibitory concentration (IC50) was no less than 0.2 µM.
On to `Nc1ccccc1NC(=O)c1ccc(CNc2nccc(-c3cccnc3)n2)cc1` [MGCD0103], for which the values for the IC50 with HDACs 4 to 8 and on HDAC11 were greater than 20000 nM and 100 to 2000 nM, respectively.
For `O=C(CCCCCCC(=O)Nc1ccccc1)NO` [SAHA, suberoylanilide hydroxamic acid], the “share of analyzed genes whose expression was changed” value in assay [6] is listed as 22.1%.
